Test results from paper PMC11106707, “Design of potent tyrosinase inhibiting N-arylated-4-yl-benzamides bearing 2-aminothiazole-triazole bi-heterocycles: mechanistic insight through enzyme inhibition, kinetics and computational studies” (RSC Advances, 2024).

Molecular target: tyrosinase
Test: not given
Details: tyrosinase inhibitor reported previously, Fig. 1; cited from earlier work

Structure (SMILES) | IC50 [nM]
COc1cc(Cl)ccc1-n1c(SCC(=O)Nc2ccc(Br)cc2)nnc1-c1ccccc1 | 4.8 ± 1.6
COc1cccc(C(=O)NN2C(=O)c3ccccc3NC2c2ccc(Br)cc2)c1 (centres unmarked) [Quinazolinone Benzamide Derivatives] | 1610 ± 324
Clc1ccc(-c2csc(N/N=C/c3ccc[nH]3)n2)cc1 | 7480 ± 190
Cc1ccccc1NC(=O)CSc1nnc(Cc2csc(N)n2)n1-c1ccccc1 | 15.6 ± 2.1
O=C(/C=C/c1ccc(O)cc1)NC(=O)c1ccccc1 [N-acryloyl benzamide Derivatives] | 19200 ± 1140
Nn1c(SCc2cc(=O)c(O)co2)nnc1-c1ccccc1Cl | 5350 ± 150

Test system: RBCs (erythrocytes)
Test: Hemolytic activity
Format: cell-based
Details: bovine, erythrocyte (RBC) suspension, pH 7.4, 20 μL compound solution (10 mg mL^−1) in 180 μL RBCs suspension, room temperature, read-out: Hemolysis (%) (mean ± SEM)
Protocol: Bovine blood sample was collected in EDTA that was diluted with saline (0.9% NaCl), and centrifuge at 1000 × g for 10 min. The erythrocytes separated diluted in phosphate buffer saline of pH 7.4 and a suspension was made. Add 20 μL of synthetic compounds solution (10 mg mL^−1) in 180 μL of RBCs suspension and incubate for 30 min at room temperature. PBS was used as negative control and Triton 100-X was taken as positive control.[43,44] The percentage of hemolysis was taken as by using formula: [drawing 24]

Structure (SMILES) | hemolysis at 30 min, 1 mg/mL [%]
Cc1cccc(C)c1NC(=O)c1ccc(CSc2nnc(Cc3csc(N)n3)n2-c2ccccc2)cc1 [9c, 4-[({5-[(2-Amino-1,3-thiazol-4-yl)methyl]-4-phenyl-4H-1,2,4-triazol-3-yl}sulfanyl)methyl]-N-(2,6-dimethylphenyl)benzamide] | 9.41 ± 0.02
CC(C)(C)CC(C)(C)c1ccc(OCCO)cc1 [Triton X, reference compound] | 94.11 ± 0.01
CCc1ccccc1NC(=O)c1ccc(CSc2nnc(Cc3csc(N)n3)n2-c2ccccc2)cc1 [9i, 4-[({5-[(2-Amino-1,3-thiazol-4-yl)methyl]-4-phenyl-4H-1,2,4-triazol-3-yl}sulfanyl)methyl]-N-(2-ethylphenyl)benzamide] | 9.41 ± 0.05
CCc1ccc(NC(=O)c2ccc(CSc3nnc(Cc4csc(N)n4)n3-c3ccccc3)cc2)cc1 [9j, 4-[({5-[(2-Amino-1,3-thiazol-4-yl)methyl]-4-phenyl-4H-1,2,4-triazol-3-yl}sulfanyl)methyl]-N-(4-ethylphenyl)benzamide] | 8.52 ± 0.05
Cc1ccc(NC(=O)c2ccc(CSc3nnc(Cc4csc(N)n4)n3-c3ccccc3)cc2)cc1 [9h, 4-[({5-[(2-Amino-1,3-thiazol-4-yl)methyl]-4-phenyl-4H-1,2,4-triazol-3-yl}sulfanyl)methyl]-N-(4-dimethylphenyl)benzamide] | 2.64 ± 0.04
CCOc1cccc(NC(=O)c2ccc(CSc3nnc(Cc4csc(N)n4)n3-c3ccccc3)cc2)c1 [9k, 4-[({5-[(2-Amino-1,3-thiazol-4-yl)methyl]-4-phenyl-4H-1,2,4-triazol-3-yl}sulfanyl)methyl]-N-(3-ethoxyphenyl)benzamide] | 10.35 ± 0.03
Cc1ccc(C)c(NC(=O)c2ccc(CSc3nnc(Cc4csc(N)n4)n3-c3ccccc3)cc2)c1 [9b, 4-[({5-[(2-Amino-1,3-thiazol-4-yl)methyl]-4-phenyl-4H-1,2,4-triazol-3-yl}sulfanyl)methyl]-N-(2,5-dimethylphenyl)benzamide] | 11.76 ± 0.03
Cc1cccc(NC(=O)c2ccc(CSc3nnc(Cc4csc(N)n4)n3-c3ccccc3)cc2)c1 [9g, 4-[({5-[(2-Amino-1,3-thiazol-4-yl)methyl]-4-phenyl-4H-1,2,4-triazol-3-yl}sulfanyl)methyl]-N-(3-methylphenyl)benzamide] | 6.52 ± 0.02
Cc1ccccc1NC(=O)c1ccc(CSc2nnc(Cc3csc(N)n3)n2-c2ccccc2)cc1 [9f, 4-[({5-[(2-Amino-1,3-thiazol-4-yl)methyl]-4-phenyl-4H-1,2,4-triazol-3-yl}sulfanyl)methyl]-N-(2-methylphenyl)benzamide] | 12.94 ± 0.03
Cc1ccc(NC(=O)c2ccc(CSc3nnc(Cc4csc(N)n4)n3-c3ccccc3)cc2)c(C)c1 [9a, 4-[({5-[(2-Amino-1,3-thiazol-4-yl)methyl]-4-phenyl-4H-1,2,4-triazol-3-yl}sulfanyl)methyl]-N-(2,4-dimethylphenyl)benzamide] | 6.47 ± 0.02
Cc1cc(C)cc(NC(=O)c2ccc(CSc3nnc(Cc4csc(N)n4)n3-c3ccccc3)cc2)c1 [9e, 4-[({5-[(2-Amino-1,3-thiazol-4-yl)methyl]-4-phenyl-4H-1,2,4-triazol-3-yl}sulfanyl)methyl]-N-(3,5-dimethylphenyl)benzamide] | 6.47 ± 0.02
Cc1ccc(NC(=O)c2ccc(CSc3nnc(Cc4csc(N)n4)n3-c3ccccc3)cc2)cc1C [9d, 4-[({5-[(2-Amino-1,3-thiazol-4-yl)methyl]-4-phenyl-4H-1,2,4-triazol-3-yl}sulfanyl)methyl]-N-(3,4-dimethylphenyl)benzamide] | 8.82 ± 0.04

Molecular target: T1, mushroom tyrosinase (Agaricus bisporus, UniProt C7FF04)
T1 construct: purchased Sigma Chemical, USA
Test: Kinetic analysis of the inhibition of tyrosinase (Lineweaver–Burk / secondary plots)
Format: biochemical
Details: Lineweaver–Burk plots; Vmax decreased, Km remained the same
Protocol: To understand the inhibitory mechanism of synthetic compounds on the tyrosinase inhibition, kinetic study was performed. […] The kinetic results of the enzyme by the Lineweaver–Burk plot of 1/V versus 1/[S] in the presence of different inhibitor concentrations furnished a series of straight lines (Fig. 13A).
Fig. 13 Lineweaver–Burk plots for inhibition of tyrosinase in the presence of compound 9c. (A) Concentrations of 9c were 0.00, 0.004, 0.008, 0.016 and 0.032 μM, respectively. Substrate L-DOPA concentrations were 0.125, 0.25, 0.5, 1 and 2 mM, respectively. (B) The insets represent the plot of the slope versus inhibitor 9c concentrations to determine inhibition constant. The lines were drawn using linear least squares fit.
A series of experiments were performed to determine the inhibition kinetics of 9c by following the already reported methods.[41,42] The inhibitor concentrations for 9c were 0.00, 0.004, 0.008, 0.016 and 0.032 μM. Substrate L-DOPA concentrations were between 0.125 and 2 mM in all kinetic studies. Pre-incubation and measurement time was the same as discussed in the mushroom tyrosinase inhibition assay protocol. Maximal initial velocity was determined from the initial linear portion of absorbance up to five minutes after addition of enzyme at a 30 s interval. […]

T1 sequence (C7FF04 1-392): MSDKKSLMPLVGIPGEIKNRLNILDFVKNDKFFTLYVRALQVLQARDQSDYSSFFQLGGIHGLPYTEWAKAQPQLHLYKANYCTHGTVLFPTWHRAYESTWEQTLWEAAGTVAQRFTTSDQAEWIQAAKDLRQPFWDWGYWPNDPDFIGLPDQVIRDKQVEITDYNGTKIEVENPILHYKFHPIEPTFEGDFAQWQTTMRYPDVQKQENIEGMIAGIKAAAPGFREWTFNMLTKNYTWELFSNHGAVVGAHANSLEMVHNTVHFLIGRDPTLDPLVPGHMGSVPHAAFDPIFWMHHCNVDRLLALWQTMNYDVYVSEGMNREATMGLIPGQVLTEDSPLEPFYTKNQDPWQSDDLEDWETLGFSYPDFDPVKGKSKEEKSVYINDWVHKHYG

Structure (SMILES) | Inhibition type
Cc1cccc(C)c1NC(=O)c1ccc(CSc2nnc(Cc3csc(N)n3)n2-c2ccccc2)cc1 [9c, 4-[({5-[(2-Amino-1,3-thiazol-4-yl)methyl]-4-phenyl-4H-1,2,4-triazol-3-yl}sulfanyl)methyl]-N-(2,6-dimethylphenyl)benzamide] | non-competitively

Same assay, conditions: calculated from Dixon plots; substrate L-DOPA 0.125–2 mM; read-out: Inhibition constant Ki

Structure (SMILES) | Ki [nM]
Cc1cccc(C)c1NC(=O)c1ccc(CSc2nnc(Cc3csc(N)n3)n2-c2ccccc2)cc1 [9c, 4-[({5-[(2-Amino-1,3-thiazol-4-yl)methyl]-4-phenyl-4H-1,2,4-triazol-3-yl}sulfanyl)methyl]-N-(2,6-dimethylphenyl)benzamide] | 16
